Values quoted from earlier work in patent publication US20090255536A1, “Biofilm-Inhibiting Catheters and Tubings” (priority 2008, published 2009).

Legend:
[1] = system: cultured human dermal fibroblasts; conditions: gNO at 200 ppm for extended periods of time
[2] = system: Group B Streptococcus; conditions: topical exogenous gNO at 200 ppm for extended periods of time
[3] = system: Escherichia coli; conditions: topical exogenous gNO at 200 ppm for extended periods of time
[4] = system: Candida albicans; conditions: topical exogenous gNO at 200 ppm for extended periods of time
[5] = system: S. aureus and P. aeruginosa; conditions: exogenous gNO at 200 ppm
[6] = system: Pseudomonas aeruginosa; conditions: topical exogenous gNO at 200 ppm for extended periods of time
[7] = system: Staphylococcus aureus; conditions: topical exogenous gNO at 200 ppm for extended periods of time

For `[N]=O` [gNO, nitric oxide], the “cytotoxic effects on cultured human dermal fibroblasts” value [1] is given as “without any cytotoxic effects”, the “growth of Group B Streptococcus” value [2] is given as “inhibited and prevented the growth” and the “growth of Escherichia coli” value [3] is given as “inhibited and prevented the growth”. The “growth of Candida albicans” value [4] was “inhibited and prevented the growth”, the “time to clear nosocomial pneumonia caused by microbial pathogens” value [5] was “about 6 hours” and the “growth of Pseudomonas aeruginosa” value [6] was “inhibited and prevented the growth”. The “growth of Staphylococcus aureus” value [7] was “inhibited and prevented the growth”.
